The text below walks through data of patent publication US20210299101A1, “SYSTEMS, METHODS, AND KITS FOR DIAGNOSTICS AND TREATMENT OF VIRAL RESPIRATORY INFECTION” (priority 2020, published 2021).

The subject of assay [1] is SARS-CoV-2. Briefly: Example 22: double-blinded placebo controlled study in hospitalized female SARS-CoV-2 patients, survival. It counts as in vivo, human. The conditions noted are these: following 14 days of treatment; 80 mg qd; 15 hospitalized female patients, score 4-6 on 8 point COVID-19 ordinal scale (control group 67%). The procedure: The patients were taking birth control and agreed not to engage in unprotected sex for at least 90 days post last dosing. None of the women were lactating.
15 subjects were assigned to HC-1119 treatment 80 mg qd. The other 13 subjects received standard treatment+HC-1119 placebo.

The test system of assay [2] is SARS-CoV-2. Put plainly: Example 24: double-blinded placebo controlled study in COVID-19 outpatients, rate of hospitalization at day 14. The settings on record: following 14 days of treatment; 80 mg qd; 28 male and female outpatients, score 1-2 on 8 point COVID-19 ordinal scale (control group 20%). It counts as in vivo, human. The protocol:
The primary outcome was the rate of hospitalization at day 14.
28 subjects were assigned to HC-1119 treatment 80 mg qd. The other 28 subjects received standard treatment+HC-1119 placebo. Following 14 days of treatment, 1% of the subjects in the HC-1119 were hospitalized compared to 20% of the subjects in the control group were hospitalzied.

Assay [3] deals with SARS-CoV-2. Briefly: Example 21: double-blinded placebo controlled study in hospitalized male SARS-CoV-2 patients, survival at day 14. The assay is classed as in vivo, human. The conditions noted are these: following 14 days of treatment; 80 mg qd; 15 hospitalized male patients, score 4-6 on 8 point COVID-19 ordinal scale (control group 55%). The procedure: The primary outcome was survival at day 14.
15 subjects were assigned to HC-1119 treatment 80 mg qd. The other 15 subjects received standard treatment+HC-1119 placebo.

For assay [4], the system named is SARS-CoV-2. Put plainly: Example 23: open label study in hospitalized male and female SARS-CoV-2 patients, survival. The assay is classed as in vivo, human. The conditions noted are these: average of 28 days of treatment; 80 mg qd; 31 hospitalized male and female patients, score 6 on 8 point COVID-19 ordinal scale (subjects not in study 3%).
Assay [5] concerns SARS-CoV-2. Briefly: Example 2: double-blinded placebo controlled prophylaxis study in health care workers, SARS-CoV-2 test at day 28. The settings on record: 10 mg/Kg/day oral, of 50 male and female health care workers negative at baseline (placebo 9 of 47).
Description: Example 2: A double-blinded placebo controlled study was conducted on 97 male and female health care workers working at two hospital emergency room departments.
At baseline, all subjects were tested negative for SARS-CoV-2 infection. […] The reminder 47 subjects were given a placebo oral pill. At day 28 all subjects were tested for SARS-CoV-2 infection.
The subject of assay [6] is SARS-CoV-2. Put plainly: Example 7: double-blinded placebo controlled study in hospitalized male SARS-CoV-2 patients, survival. It counts as in vivo, human. The settings on record: following 15 days of treatment; injection 300 mg; 60 hospitalized male patients (control group 64%). The procedure:
60 subjects were given an injection of cyproterone acetate (300 mg). The other 53 subjects received standard treatment. Following 15 days of treatment, 84% of the subjects in the cyproterone acetate survived while 64% of the control group survived.

For assay [7], the system named is SARS-CoV-2. It counts as in vivo. The settings on record: 1 admitted patient (standard care average 3.6).
Assay [8] concerns fetal pulmonary surfactant production. The settings on record: rabbits, males and females; cited from earlier work.
Assay [9] has as its system SARS-CoV-2. Briefly: Example 5: double-blinded placebo controlled prophylaxis study in male health care workers, SARS-CoV-2 test at day 28. It counts as in vivo, human. The conditions noted are these: 0.25 mg/day oral.
The subject of assay [10] is SARS-CoV-2. Put plainly: Example 4: double-blinded placebo controlled study in hospitalized male SARS-CoV-2 patients, survival. The assay is classed as in vivo, human. The conditions noted are these: following 15 days of treatment; 160 mg qd; 15 hospitalized male patients (control group 7%). The procedure:
15 subjects were assigned to enzalutamide treatment 160 mg qd. The other 15 subjects received standard treatment. Following 15 days of treatment, 20% of the subjects in the enzalutamide survived while 7% of the control group survived.

Assay [11] relates to SARS-CoV-2. Put plainly: Example 3: double-blinded placebo controlled prophylaxis study in male health care workers, SARS-CoV-2 test at day 28. The assay is classed as in vivo, human. The conditions noted are these: 750 mg/day oral, of 18 male health care workers negative at baseline (placebo 3 of 10).
Assay [12] deals with SARS-CoV-2. It counts as in vivo, human. The conditions noted are these: 3 admitted patients (standard care 4.0). The procedure: Example 19: A controlled study was conducted on 90 male patients with average age of 51 years old. […] The treatment arm was prescribed nilutamide (300 mg) orally once daily at the start of the trial, the control arm received standard care.
The patients BCRSS score was 1.3.

For assay [13], the system named is furin. The settings on record: human hepatoma cell lines (Chen et al. 2008); cited from earlier work.

For the compound `[2H]C([2H])([2H])NC(=O)c1ccc(N2C(=S)N(c3ccc(C#N)c(C(F)(F)F)c3)C(=O)C2(C)C)cc1F` [HC-1119], the subjects survived in assay [1] is listed as 91.8%; in assay [3], 96.3%; in [4], 72%. The compound also came in with a subjects hospitalized in [2] of 1%.

In the case of `C=C(C)[C@@H]1CCC(C)=C[C@H]1c1c(O)cc(CCCCC)cc1O` [cannabidiol], the “subjects tested positive for SARS-CoV-2” value in [5] is on record as 2 subjects.

Compound `CC(=O)O[C@]1(C(C)=O)CC[C@H]2[C@@H]3C=C(Cl)C4=CC(=O)[C@@H]5C[C@@H]5[C@]4(C)[C@H]3CC[C@@]21C` [cyproterone acetate] displayed a subjects survived in assay [6] of 84%.

`CC(O)c1cc(C(=O)N[C@@H](C)Cn2ccc(-c3ccc(C#N)c(Cl)c3)n2)[nH]n1` (some centres unmarked) [darolutamide]: in [7], the “BCRSS score of the admitted patient” value was 2.

For `C[C@]12CCC(=O)C[C@@H]1CC[C@@H]1[C@@H]2CC[C@]2(C)[C@@H](O)CC[C@@H]12` [dihydrotestosterone], in [8], the “effect on fetal pulmonary surfactant production” value is reported as “inhibit fetal pulmonary surfactant production”.

In the case of `C[C@]12C=CC(=O)N[C@@H]1CC[C@@H]1[C@@H]2CC[C@]2(C)[C@@H](C(=O)Nc3cc(C(F)(F)F)ccc3C(F)(F)F)CC[C@@H]12` [dutasteride], the “subjects tested positive for SARS-CoV-2 (percent)” value in assay [9] (68 male health care workers (placebo 17%)) turned out to be 4.4%. Moreover, the “subjects tested positive for SARS-CoV-2 (number)” value in assay [9] (of 68 male health care workers negative at baseline (placebo 9 of 53)) is 3 subject.

In turn, `CNC(=O)c1ccc(N2C(=S)N(c3ccc(C#N)c(C(F)(F)F)c3)C(=O)C2(C)C)cc1F` [enzalutamide] displayed a subjects survived in assay [10] of 20%.

`CC(C)C(=O)Nc1ccc([N+](=O)[O-])c(C(F)(F)F)c1` [flutamide]: in assay [11], the “subjects tested positive for SARS-CoV-2” value was 1 subject.

Take `CC1(C)NC(=O)N(c2ccc([N+](=O)[O-])c(C(F)(F)F)c2)C1=O` [nilutamide]: in [12], the “BCRSS score of admitted patients” value turned out to be 1.3.

As for `N[C@@H](Cc1cc(I)c(Oc2ccc(O)c(I)c2)c(I)c1)C(=O)O` [thyroid hormone T3], the furin expression entry in assay [13] is given as “up-regulated”.
